Patent US20160038454A1, “INTRAVENOUS FORMULATIONS OF […] AS IMMUNOMODULATORS AND […] AGENTS” (priority 2013, published 2016)
Values after ≈ are worked out from the molar mass of the structure shown. “Also recorded” adds a separate entry of the source.

Key:
MV4-11 cells = test: Synergy with AML drugs in vitro; assay type: cell-based; conditions: MV4-11 cells in vitro
Description: Another consequence of XPB binding is the inhibition of nucleotide excision repair.

Ba/F3-ITD cells = conditions: mice harboring Ba/F3-ITD cells; Carter et al. 2012; cited from earlier work
[1] = test system: bulk, CD34(+) progenitor and CD34(+)CD38(−) stem/progenitor cells from AML patients; conditions: low nanomolar concentrations; also in coculture with mesenchymal stromal cells; Carter et al. 2012; cited from earlier work
[2] = PG796(MRx102) solubility in emulsion formulations; assay type: physicochemical; conditions: emulsion formulation, aqueous with cosolvent or surfactant or cyclodextrin
Experimental: Various ratios of the nonionic surfactants polysorbate 80 (a.k.a. Tween 80) and Span 80 were explored, and a formulation was prepared and tested as follows. […] The results of this preliminary experiment were encouraging in that a reasonably high solubility was obtained in a formulation containing almost 70% water.
Emulsion formulations were prepared using a probe sonicator to disperse the oil phase in the aqueous phase to form a creamy opaque suspension.
Typical emulsion formulations consist of 10-30% triglyceride, most commonly SBO, dispersed with 0.5-2% phospholipids in an aqueous phase, which contains glycerin as a tonicity agent. […] Additionally, PEG-400 and ethanol were incorporated into some of the formulations to decrease the polarity of the aqueous phase to enhance solubility. Sodium cholate was included in some formulations as a co-surfactant. Solubility of at least 1 mg/mL was obtained in all of the formulations. In each case some loss of potency was observed after eight days of storage, but the majority of the original potency was maintained.
Pharmaceutical emulsions are typically prepared at neutral to slightly alkaline pH since they are stabilized by electrostatic repulsion between droplets imparted by pH-sensitive anionic surfactants, such as phosphatidyl ethanolamine, free fatty acid salts, and cholate. However, it was possible that this pH range could be suboptimal for the chemical stability of PG796(MRx102). To test this, emulsions were prepared at different pH values ranging from 4 to 8. Buffers were included to control the pH, and the non-pH sensitive surfactant, sodium dodecyl sulfate was used in place of sodium cholate to assure a negative charge even in the low pH emulsions. All of the formulations were reasonably stable for up to 2 weeks at room temperature. […]

NF-κB, Mcl-1 and XIAP = conditions: cited from earlier work
[3] = TK: plasma triptolide levels, Calvert study (emulsion); assay type: in vivo, rodents; conditions: FIG. 1
Experimental: Triptolide prodrugs are generally believed to be safer than triptolide. […] Triptolide prodrugs as an emulsion formulation are believed to have a toxicokinetic profile characterized by a flat AUC with a minimized Cmax. [In conjunction, it was postulated that a sustained inhibition of RNA polymerase is needed for optimum efficacy which in turn requires a pharmcokinetic profile of constant exposure to drug]. […] The no effect dose (“NOAEL”) of PG796(MRx102) again exceeded 1.5 mg/kg/day intravenously for seven days in rodents confirming the initial results. It is interesting to ask why a prodrug of triptolide would be safer than the natural product itself; while not wishing to be bound by theory, perhaps the answer lies in the pharmacokinetic profile of triptolide administered either directly or released from its carrier, PG796(MRx102). […] It also remained above the therapeutic levels (shown as a thick line without symbols). The difference in the Cmax/AUC profile of PG796(MRx102) vs. triptolide is believed to be due to the physiochemical properties of the lipid prodrug/emulsion formulation combination. In general, triptolide prodrugs having a cLogP greater than 0.5 are more lipid-soluble than water soluble and are expected to take longer to convert to the drug form; such characteristics may yield a flatter conversion profile and less of a drug-release Cmax spike.
TK comparison of triptolide levels in Calvert and SRI studies—Males and Females

[4] = Conversion to triptolide using human serum; assay type: in vitro ADME
Description: (Xia Zhi Lin and Zhen You Lan, Haematologica, 93:14 (2008)).

[5] = test system: IL-2 production by Jurkat cells; test: cells; assay type: cell-based, human
Experimental: Test samples can be diluted to 1 mM in complete tissue culture medium. Aliquots are placed in microculture plates coated with anti-CD3 antibody (used to stimulate the production of IL-2 by Jurkat cells), and serial dilutions are prepared so that the final concentration encompass the range of 0.001 to 10,000 nM in log increments. Cells from an exponentially expanding culture of Jurkat human T cell line (#TIB-152 obtained from American Type Culture Collection, Manassas, Va.) are harvested, washed once by centrifugation, re-suspended in complete tissue culture medium, and diluted to a concentration of 2×10^6 cells/ml. A volume of 50 μl of Jurkat cells (1×10^5 cells) is added to wells containing 100 μl of the diluted compounds, 50 μl of PMA (10 ng/ml) is added to each well, and the plates are incubated at 37° C. in a 5% CO2 incubator. After 24 hours, the plates are centrifuged to pellet the cells, 150 μl of supernatant is removed from each well, and the samples are stored at −20° C. The stored supernatants are analyzed for human IL-2 concentration using the Luminex 100 (Luminex Corporation, Austin, Tex.), Luminex microspheres coupled with anti-IL-2 capture antibody, and fluorochrome-coupled anti-IL-2 detection antibody. The data are expressed as pg/ml of IL-2.

[6] = emulsion target pH 4.0 (acetate)
[7] = emulsion target pH 5.0 (acetate)
[8] = emulsion target pH 6.0 (histidine)
[9] = emulsion target pH 7.0 (phosphate)

CC(C)[C@]12O[C@H]1[C@@H]1O[C@]13[C@]1(O[C@H]1C[C@H]1c4c(C(=O)c5ccccc5)oc(OC(=O)c5ccccc5)c4CC[C@@]13C)[C@@H]2O [PG796, 18-deoxo-19-dehydro-18-benzoyloxy-19-benzoyl triptolide]
synergy with cytarabine (MV4-11 cells): synergy was demonstrated | synergy with idarubicin (MV4-11 cells): synergy was demonstrated | leukemia burden (Ba/F3-ITD cells): greatly decreased | survival time (Ba/F3-ITD cells): increased | apoptosis in cells from AML patients [1]: induced apoptosis | solubility at 0 hr [2, 6]: 870 µg/mL (≈ 1530 µM) | solubility at 1 wk [2, 6]: 1000 µg/mL (≈ 1760 µM) | solubility at 2 wk [2, 6]: 848 µg/mL (≈ 1490 µM) | solubility at 24 hr [2, 6]: 917 µg/mL (≈ 1610 µM) | solubility at 0 hr [2, 7]: 1010 µg/mL (≈ 1770 µM) | solubility at 1 wk [2, 7]: 972 µg/mL (≈ 1710 µM) | solubility at 2 wk [2, 7]: 910 µg/mL (≈ 1600 µM) | solubility at 24 hr [2, 7]: 922 µg/mL (≈ 1620 µM) | solubility at 0 hr [2, 8]: 1090 µg/mL (≈ 1920 µM) | solubility at 1 wk [2, 8]: 948 µg/mL (≈ 1670 µM) | solubility at 2 wk [2, 8]: 850 µg/mL (≈ 1490 µM) | solubility at 24 hr [2, 8]: 890 µg/mL (≈ 1570 µM) | solubility at 0 hr [2, 9]: 996 µg/mL (≈ 1750 µM) | solubility at 1 wk [2, 9]: 760 µg/mL (≈ 1340 µM) | solubility at 2 wk [2, 9]: 822 µg/mL (≈ 1450 µM) | solubility at 24 hr [2, 9]: 849 µg/mL (≈ 1490 µM) | solubility at 0 hr ([2]; emulsion target pH 8.0 (Tris)): 929 µg/mL (≈ 1630 µM) | solubility at 1 wk ([2]; emulsion target pH 8.0 (Tris)): 1040 µg/mL (≈ 1830 µM) | solubility at 2 wk ([2]; emulsion target pH 8.0 (Tris)): 930 µg/mL (≈ 1640 µM) | solubility at 24 hr ([2]; emulsion target pH 8.0 (Tris)): 929 µg/mL (≈ 1630 µM) | solubility ([2]; preliminary emulsion: 29.4% GTO, 1.65% Span 80, 0.31% Tween 80, 68.6% water): 681 µg/mL (≈ 1200 µM) | effect on mRNA levels, NF-κB, Mcl-1 and XIAP (NF-κB, Mcl-1 and XIAP): reduced mRNA levels, reduced NF-κB and reduced Mcl-1 and XIAP | triptolide Cmax after prodrug relative to triptolide administered directly ([3]; intravenous, emulsion): approximately one-tenth | triptolide blood levels over time ([3]; prodrug administered): remained relatively constant | conversion to triptolide in human serum [4]: rapidly and completely converted | IL-2 inhibition (in words) ([5]; Jurkat cells, comparison with triptolide or PG490-88): inhibited IL-2 production; also recorded: higher level of activity | activity in IL-2 inhibition assay after incubation in human serum vs mouse serum ([5]; incubated in human serum compared with mouse serum): high, and essentially equivalent, activity
